Measured values taken from PubChem BioAssay AID1919002 (Molecular Pharmacology Branch, DTP, NCI, 2023).
Where “and” joins values, the source holds several entries; their conditions need not be identical. Identical values can stand only once.

Tested on: 743489-274-T-PDC complex spheroid growth
Experiment: Anticancer human tumor 743489-274-T-PDC patient-derived renal cell carcinoma cell line growth inhibition [AhR]
Conditions: for viability, T/C: stronger effect = lower value
Excerpt: Multicellular complex tumor spheroid response to aryl hydrocarbon receptor antagonists in combination with a variety of drugs and investigational agents in selected tumor cell lines
The current study was undertaken to assess response to aryl hydrocarbon receptor antagonists in combination with standard-of-care drugs and investigational agents in solid tumor complex spheroid models. Complex spheroids include a stromal component modeled by human endothelial cells (HUVEC) and fibroblasts modeled by human mesenchymal stem cells (MSCs). The concentration ranges selected for each drug and investigational agent were based upon clinically achievable concentrations if the clinical Cmax of the agent was known.
Compounds. The drugs and investigational agents: BAY 2416964 (NSC825713), GNF351 (NSC835774), CH-223191 (NSC835775), CPI-455 (NSC825282), aza-TdCyd (NSC777586), decitabine (NSC127716), belinostat (NSC758774), entinostat (NSC756642), pevonedistat (NSC761192), tazemetostat (NSC777109), talazoparib (NSC765396), olaparib (NSC753686), selinexor (NSC780203), nedisertib (M3814, NSC802822), bortezomib (NSC756655), venetoclax (NSC766270), doxorubicin (NSC123127), elimusertib (BAY189344, NSC800525), ceralasertib (AZD6738, NSC777638), TAK-243 (NSC785004), alisertib (NSC759677), etoposide (NSC141540), topotecan (NSC609699), eribulin (NSC707389), gemcitabine (NSC613327), carboplatin (NSC241240), cisplatin (NSC119875), and SN-38 (NSC673596) were obtained from the National Cancer Institute (NCI) Developmental Therapeutics Program Chemical Repository (32). The FDA-approved anticancer drug set is available from the Developmental Therapeutics Program at https://dtp.cancer.gov/organization/dscb/obtaining/available plates.htm. […] The stock solutions were prepared in dimethyl sulfoxide (DMSO, Sigma-Aldrich, St. Louis, MO, cat. D2650), except for the platinum compounds which were prepared in saline (Quality Biological, Gaithersburg, MD, cat. 114-055-101), at 800-fold the tested concentration and stored at -70 degrees C prior to their use. All drugs and investigational agents were tested over a range starting from a high concentration at or near the clinical Cmax and decreasing in half-log increments. If the clinical Cmax for an agent had not been determined, the highest concentration tested was 10 microM (Table 1).
Cell Culture. All cells were maintained in an incubator at 37 degrees C and 5% CO2 with 95% humidity. The PDC lines were cultured according to standard operating procedures established by the NCI PDMR (https://pdmr.cancer.gov). Briefly, all PDCs were thawed and cultured in Matrigel-coated flasks prepared with a working solution of 1X Ham's F-12 nutrient mix, without supplementation (Invitrogen, Waltham, MA, cat. 11765054), 100 U/mL penicillin-streptomycin (Invitrogen, cat. 15140122), and 2.5% Matrigel (Corning Inc., Corning, NY, cat. 354248) for the first three passages. All PDCs were cultured in complete DMEM/F-12 media containing advanced DMEM/F-12 (Invitrogen, cat. 12634028), 4.9% defined fetal bovine serum, heat inactivated (HyClone Laboratories Inc., Logan, UT, cat. SH30070.03HI), 389 ng/mL hydrocortisone (Sigma-Aldrich, cat. H4001), 9.7 ng/mL human EGF recombinant protein (Invitrogen, cat. PHG0313), 23.4 microg/mL adenine (Sigma-Aldrich, cat. A2786), 97.3 U/mL penicillin-streptomycin (Invitrogen, cat. 15140122), 1.9 mM L-glutamine (Invitrogen, cat. 25030081), and 9.7 microM Y-27632 dihydrochloride (Tocris Bioscience, Bristol, United Kingdom, cat. 1254). The PDCs were cultured in complete DMEM/F12 media without 10 microM Y-27632 dihydrochloride for at least two passages prior to the screen. The established cell lines NCI-H1341 and […] were cultured in DMEM/F-12, HEPES (Invitrogen, cat. 11330032), 5% defined fetal bovine serum (HyClone Laboratories Inc., cat. SH30070.03), ITS premix universal culture supplement [insulin (5 microg/mL), transferrin (5 microg/mL), and selenious acid (5 ng/mL)] […]

[1] = curve of first compound, second compound 0.1 µM
[2] = curve of first compound, second compound 0.316 µM
[3] = curve of first compound, second compound 1 µM
[4] = curve of first compound, second compound 3.16 µM
[5] = curve of first compound, second compound 10 µM
[6] = second compound 0.1 µM, first compound 0.0316 µM
[7] = second compound 0.1 µM, first compound 0.1 µM
[8] = second compound 0.1 µM, first compound 0.316 µM
[9] = second compound 0.1 µM, first compound 1 µM
[10] = second compound 0.1 µM, first compound 3.16 µM
[11] = second compound 0.1 µM, first compound 10 µM
[12] = second compound 0.316 µM, first compound 0.0316 µM
[13] = second compound 0.316 µM, first compound 0.1 µM
[14] = second compound 0.316 µM, first compound 0.316 µM
[15] = second compound 0.316 µM, first compound 1 µM
[16] = second compound 0.316 µM, first compound 3.16 µM
[17] = second compound 0.316 µM, first compound 10 µM
[18] = second compound 1 µM, first compound 0.0316 µM
[19] = second compound 1 µM, first compound 0.1 µM
[20] = second compound 1 µM, first compound 0.316 µM
[21] = second compound 1 µM, first compound 1 µM
[22] = second compound 1 µM, first compound 3.16 µM
[23] = second compound 1 µM, first compound 10 µM
[24] = second compound 3.16 µM, first compound 0.0316 µM
[25] = second compound 3.16 µM, first compound 0.1 µM
[26] = second compound 3.16 µM, first compound 0.316 µM
[27] = second compound 3.16 µM, first compound 1 µM
[28] = second compound 3.16 µM, first compound 3.16 µM
[29] = second compound 3.16 µM, first compound 10 µM
[30] = second compound 10 µM, first compound 0.0316 µM
[31] = second compound 10 µM, first compound 0.1 µM
[32] = second compound 10 µM, first compound 0.316 µM
[33] = second compound 10 µM, first compound 1 µM
[34] = second compound 10 µM, first compound 3.16 µM
[35] = second compound 10 µM, first compound 10 µM
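Note: spheroids exposed to agents for 7 days before readout.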
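Throughout, for viability, T/C: 100% = DMSO vehicle control wells.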

For Nc1ncn(C2CC(O)C(CO)S2)c(=O)n1 (configuration not stated), the viability, T/C (compound 0.000949 µM) was 110% and 93.5% and 116%, the viability, T/C (compound 0.003 µM) was 104% and 98.1% and 105% and the viability, T/C (compound 0.00949 µM) was 96.2% and 94.2% and 111%. The viability, T/C (compound 0.03 µM) was 102% and 85.6% and 96.6%, the viability, T/C (compound 0.0949 µM) was 97.2% and 95% and 103% and the viability, T/C (compound 0.3 µM) was 97.2% and 89.2% and 103%. For the same compound, the IC50 (curve of compound) was over 0.3 µM.
Nc1ncn(C2CC(O)C(CO)S2)c(=O)n1 (configuration not stated) + CC(CO)NC(=O)c1cc(-c2ccc(Cl)cc2)nn(-c2cnn(C)c2)c1=O showed an IC50 [1] of over 0.3 µM, an IC50 [2] of over 0.3 µM and an IC50 [3] of over 0.3 µM. For the same compound, the IC50 [4] was over 0.3 µM, the IC50 [5] was over 0.3 µM and the viability, T/C (second compound 0.1 µM, first compound 0.000949 µM) was 93.7%. For the same compound, the viability, T/C (second compound 0.1 µM, first compound 0.003 µM) was 111%, the viability, T/C (second compound 0.1 µM, first compound 0.00949 µM) was 102% and the viability, T/C (second compound 0.1 µM, first compound 0.03 µM) was 96%. It also gave a viability, T/C (second compound 0.1 µM, first compound 0.0949 µM) of 96%, a viability, T/C (second compound 0.1 µM, first compound 0.3 µM) of 114% and a viability, T/C (second compound 0.316 µM, first compound 0.000949 µM) of 103%. The viability, T/C (second compound 0.316 µM, first compound 0.003 µM) was 92.9%, the viability, T/C (second compound 0.316 µM, first compound 0.00949 µM) was 93% and the viability, T/C (second compound 0.316 µM, first compound 0.03 µM) was 88%. It also gave a viability, T/C (second compound 0.316 µM, first compound 0.0949 µM) of 86.9%, a viability, T/C (second compound 0.316 µM, first compound 0.3 µM) of 95.1% and a viability, T/C (second compound 1 µM, first compound 0.000949 µM) of 92.4%. The viability, T/C (second compound 1 µM, first compound 0.003 µM) was 89.3%, the viability, T/C (second compound 1 µM, first compound 0.00949 µM) was 91.7% and the viability, T/C (second compound 1 µM, first compound 0.03 µM) was 101%. For the same compound, the viability, T/C (second compound 1 µM, first compound 0.0949 µM) was 87.7%, the viability, T/C (second compound 1 µM, first compound 0.3 µM) was 101% and the viability, T/C (second compound 3.16 µM, first compound 0.000949 µM) was 103%. For the same compound, the viability, T/C (second compound 3.16 µM, first compound 0.003 µM) was 95.7%, the viability, T/C (second compound 3.16 µM, first compound 0.00949 µM) was 84.4% and the viability, T/C (second compound 3.16 µM, first compound 0.03 µM) was 88.3%. It also gave a viability, T/C (second compound 3.16 µM, first compound 0.0949 µM) of 86.8%, a viability, T/C (second compound 3.16 µM, first compound 0.3 µM) of 92.9% and a viability, T/C (second compound 10 µM, first compound 0.000949 µM) of 95.5%. For the same compound, the viability, T/C (second compound 10 µM, first compound 0.003 µM) was 95.1%, the viability, T/C (second compound 10 µM, first compound 0.00949 µM) was 91.2% and the viability, T/C (second compound 10 µM, first compound 0.03 µM) was 95.1%. For the same compound, the viability, T/C (second compound 10 µM, first compound 0.0949 µM) was 93.4% and the viability, T/C (second compound 10 µM, first compound 0.3 µM) was 86.9%.
With NS(=O)(=O)OCC1CC(n2ccc3c(NC4CCc5ccccc54)ncnc32)CC1O (configuration not stated) + Cc1ccccc1N=Nc1ccc(NC(=O)c2ccnn2C)c(C)c1 the IC50 [1] was over 10 µM, the IC50 [2] was over 10 µM and the IC50 [3] was over 10 µM. It also gave an IC50 [4] of over 10 µM, an IC50 [5] of over 10 µM and a viability, T/C [6] of 103%. For the same compound, the viability, T/C [7] was 110%, the viability, T/C [8] was 116% and the viability, T/C [9] was 146%. The viability, T/C [10] was 162%, the viability, T/C [11] was 140% and the viability, T/C [12] was 109%. For the same compound, the viability, T/C [13] was 95.8%, the viability, T/C [14] was 112% and the viability, T/C [15] was 144%. The viability, T/C [16] was 137%, the viability, T/C [17] was 155% and the viability, T/C [18] was 98.1%. It also gave a viability, T/C [19] of 104%, a viability, T/C [20] of 102% and a viability, T/C [21] of 144%. For the same compound, the viability, T/C [22] was 146%, the viability, T/C [23] was 141% and the viability, T/C [24] was 105%. For the same compound, the viability, T/C [25] was 90.8%, the viability, T/C [26] was 112% and the viability, T/C [27] was 128%. The viability, T/C [28] was 152%, the viability, T/C [29] was 140% and the viability, T/C [30] was 96.7%. The viability, T/C [31] was 103%, the viability, T/C [32] was 116% and the viability, T/C [33] was 130%. For the same compound, the viability, T/C [34] was 121% and the viability, T/C [35] was 115%.
Nc1ccccc1NC(=O)c1ccc(CNC(=O)OCc2cccnc2)cc1 + CC(CO)NC(=O)c1cc(-c2ccc(Cl)cc2)nn(-c2cnn(C)c2)c1=O showed an IC50 [1] of 4.81 µM, an IC50 [2] of 3.74 µM and an IC50 [3] of 4.31 µM. It also gave an IC50 [4] of 1.74 µM, an IC50 [5] of 1.08 µM and a viability, T/C [6] of 92.7%. The viability, T/C [7] was 92.3%, the viability, T/C [8] was 92.9% and the viability, T/C [9] was 72.5%. For the same compound, the viability, T/C [10] was 61.8%, the viability, T/C [11] was 32.9% and the viability, T/C [12] was 89.1%. For the same compound, the viability, T/C [13] was 80.9%, the viability, T/C [14] was 87.9% and the viability, T/C [15] was 62.6%. It also gave a viability, T/C [16] of 55.4%, a viability, T/C [17] of 34.6% and a viability, T/C [18] of 92.5%. The viability, T/C [19] was 91%, the viability, T/C [20] was 80.5% and the viability, T/C [21] was 78.4%. It also gave a viability, T/C [22] of 56.4%, a viability, T/C [23] of 29.7% and a viability, T/C [24] of 88.4%. For the same compound, the viability, T/C [25] was 88.5%, the viability, T/C [26] was 78% and the viability, T/C [27] was 59.7%. For the same compound, the viability, T/C [28] was 39.7%, the viability, T/C [29] was 27.7% and the viability, T/C [30] was 79.1%. The viability, T/C [31] was 87.3%, the viability, T/C [32] was 69.2% and the viability, T/C [33] was 52.4%. It also gave a viability, T/C [34] of 31.3% and a viability, T/C [35] of 23.4%.
